Test results as given in patent publication US20050260164A1, “Gene regulation with aptamer and modulator complexes for gene therapy” (priority 2002, published 2005).

Columns and labels:
[1] = tested on: MPTP-ablated monkeys; experiment: Parkinsonian clinical rating scale (CRS) in MPTP-ablated monkeys; assay type: in vivo, rhesus; details: diflucan continuously 3-12 mg/kg x day in animal previously treated with Lenti-GDNF
Method: Twenty young adult rhesus are initially trained 3 days per week until asymptotic performance is achieved on a hand-reach task in which the time to pick up food treats out of recessed wells is measured (M. E. Emborg, et al., J. Comp. Neurol. 401, 253 (1998); J. H. Kordower, Cell Transplant. 4, 155 (1995)). Each experimental day, monkeys receive 10 trials per hand. Once per week, monkeys are also evaluated on a modified parkinsonian clinical rating scale (CRS) to obtain a measurement of baseline performance. All monkeys then receive an injection of 3 mg MPTP-HCl into the right carotid artery, initiating a Parkinsonian state. One week later, monkeys are evaluated on the CRS. Only monkeys displaying severe hemi-Parkinsonism with the classic crooked arm posture and dragging leg on the left side continue in the study.
On the basis of CRS scores, monkeys are matched into three groups of five monkeys, which receive on that day: lentiviral vector expressing-b-galactosidase (Lenti-βgal) (group 1); Lenti-GDNF plus continuous treatment with diflucan (group 2); or Lenti-GDNF treatment alone (group 3). […]
One week following lentiviral vector treatment, monkeys begin retesting on the hand-reach task three times per week for 3 weeks per month. […] During the weeks of hand-reach testing, monkeys are also scored once per week on the CRS. […]

[2] = tested on: GDNF; experiment: GDNF expression in brain of MPTP-ablated monkeys (immunohistochemistry, ELISA); assay type: in vivo, rhesus
Method: After euthanasia, all monkeys are perfused with saline. The brain is removed, immersed in ice-cold saline for 10 min, and sliced on a monkey brain slicer. Slabs through the head of the caudate and putamen are punched bilaterally with a 1 mm brain punch. These punches are processed for HPLC for determination of catecholamine content. Brain punches are also homogenized in 150:1 buffer I [0.1M tris-buffered saline, pH 8.1, containing 1 mM EDTA, 1% aprotinin, 10 mg/ml leupeptin, 14 mg/ml pepstatin, 4 mM phenylmethylsulfonyl fluoride (PMSF)] for 30 sec in the ice slurry. An equal amount of buffer II (0.1 M tris-buffered saline, pH 8.1, containing 1 mM EDTA, 1% aprotinin, 10 g/ml leupeptin, 14 μg/ml pepstatin, 4 mM PMSF, and 0.5% NP-40) is then added. The tubes are shaken for 2 hours. The supernatant is collected for ELISA and protein measurements. The ELISA reaction was completed in 96-well plate (Dynatech, Chantilly, Va.) according to the ELISA manufacturer's instructions (GDNF Emax ImmunoAssay Systems Kit G3520, Promega, Madison, Wis.). The optical densities are recorded in ELISA plate reader (at 450 nm wave length; Dynatech). […] The concentrations of GDNF are calculated against six-point standard curve and then adjusted to picograms of GDNF per milligram of total protein. The total protein in each tissue lysate is measured using Bio-Rad protein assay kit (Bio-Rad, Richmond, Calif.). […]

With `OC(Cn1cncn1)(Cn1cncn1)c1ccc(F)cc1F` [Diflucan, Fluconazole] the “therapeutic effect in Parkinson's model monkeys” value [1] was “no therapeutic effect”, the GDNF expression ([2]; diflucan continuously 3-12 mg/kg x day in animal previously treated with Lenti-GDNF) was “switched off” and the “levels of GDNF in the brains” value ([2]; diflucan treated animals compared to animals where diflucan is omitted) was “no significant levels of GDNF”.
